According to patent US20240132479A1, “THERAPEUTIC COMPOUNDS AND USES THEREOF” (Board of Trustees of Michigan State University, priority 2021, published 2024):
Converted amounts (≈) assume the structure as drawn. Read-outs that look alike come from different tables or passages of the source.

Assays:
[1] = test system: M. avium (ATCC 700891 MAC 101); test: MIC determination in microdilution assay, M. avium; format: cell-based; conditions: Mycobacterium avium, ATCC700891
[2] = test system: Mycobacterium abscessus (ATCC 19977); test: Ex vivo efficacy, M. abscessus; format: cell-based
Method: (§1) The compounds of Examples 2, 21A, and 19 were tested for 1) for ex vivo efficacy and 2) cytotoxicity. Ex vivo efficacy was determined by inhibition of Mycobacterium tuberculosis (Mtb) H37Rv, Mycobacterium avium complex (ATCC 700891 MAC 101), and Mycobacterium abscessus (ATCC 19977). Cytotoxicity tests were carried out against three human cell lines, THP-1 (ATCC TIB-202), HepG2 (ATCC HB-8065), and HeLa (ATCC CCL-2), IC50 values were calculated from dose response curves to determine cytotoxicity of test compounds. […] Of the three compounds tested for ex vivo efficacy against NTM strains, there was no activity (>32 mg/L) against M. avium and one compound with activity against M. abscessus. […] These compounds were not cytotoxic (>128 mg/L) against HepG2 and HeLa cells. The compounds average therapeutic index for HepG2 was 12.4-48.3 and 96.7-389 for HeLa.

Mtb H37Rv = test: MIC determination in microdilution assay, Mtb H37Rv; format: cell-based; conditions: Mycobacterium tuberculosis
[3] = test system: Mycobacterium avium complex (ATCC 700891 MAC 101); test: Ex vivo efficacy, M. avium; format: cell-based
Method: as §1

in vitro = format: cell-based; conditions: human
Method: as §1

[4] = test system: M. abscessus (ATCC 19977); test: MIC determination in microdilution assay, M. abscessus; format: cell-based, Mycobacterium abscessus; conditions: Mycobacteroides abscessus, ATCC19977; read-out: MIC M. abcessus 19977
[5] = HeLa cells, read-out: HeLa Cytotoxicity (IC50 μg/ml)
[6] = HepG2 cells, read-out: HepG2 Cytotoxicity (IC50 μg/ml)
[7] = THP-1 cells, read-out: THP-1 Cytotoxicity (IC50 μg/ml)

SMILES	melting point	MIC [1]	M. abscessus ex vivo efficacy (>90% inhibition μg/ml) [2]	MIC (Mtb H37Rv)	M. avium ex vivo efficacy (>90% inhibition μg/ml) [3]	IC50 (in vitro; [5])	IC50 (in vitro; [6])	IC50 (in vitro; [7])	MIC [4]
Cc1cc2nc(SCC(=O)N(C(C)C)C(C)C)[nH]c2cc1C [Example 2, 2-[(5,6-dimethyl-1H-1,3-benzodiazol-2-yl)sulfanyl]-N,N-bis(propan-2-yl)acetamide]	172 °C	> 64 µg/mL	0.25 µg/mL	0.5 µg/mL (≈ 1.57 µM)	0.5 µg/mL	4 µg/mL (≈ 12.5 µM)	0.5 µg/mL (≈ 1.57 µM)	0.5 µg/mL (≈ 1.57 µM)	4 µg/mL (≈ 12.5 µM)
CC(C)N(C(=O)CCc1nc2cc(Cl)c(Cl)cc2[nH]1)C(C)C [Example 19]		8 µg/mL (≈ 23.4 µM)	≤0.125 µg/mL	≤ 0.125 µg/mL	≤0.125 µg/mL	1 µg/mL (≈ 2.92 µM)	≤ 0.125 µg/mL	≤ 0.125 µg/mL	1 µg/mL (≈ 2.92 µM)
Cc1cc2nc(CCC(=O)N(C(C)C)C(C)C)[nH]c2cc1C [Example 21A]		16 µg/mL (≈ 53.1 µM)	0.25 µg/mL	0.25 µg/mL (≈ 0.829 µM)	0.25 µg/mL	2 µg/mL (≈ 6.63 µM)	≤ 0.125 µg/mL	≤ 0.125 µg/mL	2 µg/mL (≈ 6.63 µM)
